Tests used:
Test in all cases: relative viability (nuclei count vs DMSO), 5 days (fraction); higher = more cells survive
[1] = compound: C1=CC=C2C(=C1)C=CC(=C2SSC3=C(C=CC4=CC=CC=C43)O)O [IPA-3] + CC(=O)c1c(C)c2cnc(Nc3ccc(N4CCNCC4)cn3)nc2n(C2CCCC2)c1=O [Palbociclib] (partner 0.5 µM)
In short: (§1)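 Relative viability is defined as nuclei in treated wells over nuclei in vehicle wells. Duplicate plates were run and medians reported. Lung cancer cell lines in 1536-well plates were dosed by pin tool one day after seeding, with one drug or with a fixed anchor-drug dose plus five library-drug doses (not always all listed) in √10 steps, and nuclei were counted after 5 days.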

[2] = compound: Cc1ccc(-n2nc(C(C)(C)C)cc2NC(=O)Nc2ccc(OCCN3CCOCC3)c3ccccc23)cc1 [Doramapimod] + CS(=O)(=O)CCNCc1ccc(-c2ccc3ncnc(Nc4ccc(OCc5cccc(F)c5)c(Cl)c4)c3c2)o1 [Lapatinib] (partner 2 µM)
In short: as §1

[3] = compound: Cc1ccc(-n2nc(C(C)(C)C)cc2NC(=O)Nc2ccc(OCCN3CCOCC3)c3ccccc23)cc1 [Doramapimod] + CC(C)C[C@H](NC(=O)[C@H](Cc1ccccc1)NC(=O)c1cnccn1)B(O)O [Bortezomib] (partner 0.002 µM)
In short: as §1

[4] = compound: Cc1ccc(-n2nc(C(C)(C)C)cc2NC(=O)Nc2ccc(OCCN3CCOCC3)c3ccccc23)cc1 [Doramapimod] + COc1cc2c(Oc3ccc(NC(=O)C4(C(=O)Nc5ccc(F)cc5)CC4)cc3F)ccnc2cc1OCCCN1CCOCC1 [Foretinib] (partner 0.25 µM)
In short: as §1

| Cell Line | relative viability ([1]; first compound 0.2 µM) | relative viability ([1]; first compound 0.6325 µM) | relative viability ([1]; first compound 2 µM) | relative viability ([1]; first compound 6.325 µM) | relative viability ([1]; first compound 20 µM) | relative viability ([2]; first compound 0.02 µM) | relative viability ([2]; first compound 0.06325 µM) | relative viability ([2]; first compound 0.2 µM) | relative viability ([2]; first compound 0.6325 µM) | relative viability ([2]; first compound 2 µM) | relative viability ([3]; first compound 0.02 µM) | relative viability ([3]; first compound 0.06325 µM) | relative viability ([3]; first compound 0.2 µM) | relative viability ([3]; first compound 0.6325 µM) | relative viability ([3]; first compound 2 µM) | relative viability ([4]; first compound 0.02 µM) | relative viability ([4]; first compound 0.06325 µM) | relative viability ([4]; first compound 0.2 µM) | relative viability ([4]; first compound 0.6325 µM) | relative viability ([4]; first compound 2 µM) |
| --- | --- | --- | --- | --- | --- | --- | --- | --- | --- | --- | --- | --- | --- | --- | --- | --- | --- | --- | --- | --- |
| NCI-H1355 | 0.445 | 0.395 | 0.386 | 0.405 | 0.424 | 0.972 | 0.992 | 0.964 | 0.95 | 0.952 | 1.23 | 1.29 | 1.29 | 1.19 | 1.16 | 0.95 | 0.986 | 0.922 | 0.972 | 0.939 |
| NCI-H1437 | 0.409 | 0.359 | 0.317 | 0.291 | 0.285 | 0.805 | 0.905 | 0.837 | 0.898 | 0.723 | 0.586 | 0.643 | 0.551 | 0.464 | 0.495 | 1.37 | 1.39 | 1.35 | 1.38 | 1.2 |
| NCI-H1650 | 0.472 | 0.314 | 0.328 | 0.311 | 0.327 | 0.665 | 0.736 | 0.795 | 0.247 | 0.786 | 0.232 | 0.23 | 0.194 | 0.191 | 0.189 | 1.06 | 1.26 | 1.36 | 1.41 | 1.21 |
| NCI-H1651 | 0.534 | 0.511 | 0.541 | 0.528 | 0.602 | 0.878 | 0.791 | 0.864 | 0.99 | 0.781 | 0.922 | 0.996 | 0.931 | 0.987 | 0.907 | 0.912 | 0.777 | 0.841 | 0.793 | 0.869 |
| NCI-H1666 | 0.643 | 0.672 | 0.624 | 0.616 | 0.658 | 0.814 | 0.702 | 0.654 | 0.637 | 0.68 | 0.83 | 0.784 | 0.826 | 0.842 | 0.725 | 0.948 | 1.05 | 1.02 | 1.08 | 0.971 |
| NCI-H1734 | 0.366 | 0.19 | 0.359 | 0.345 | 0.361 | 1.27 | 0.963 | 0.932 | 1.04 | 0.928 | 0.845 | 0.859 | 0.766 | 0.966 | 0.724 | 0.808 | 0.805 | 0.802 | 0.767 | 0.598 |
| NCI-H1755 | 0.464 | 0.488 | 0.422 | 0.43 | 0.44 | 0.6 | 1.04 | 1.05 | 1.08 | 1.03 | 1.03 | 1 | 0.793 | 0.897 | 0.831 | 0.984 | 0.928 | 0.93 | 0.892 | 0.866 |
| NCI-H1915 | 0.498 | 0.514 | 0.534 | 0.495 | 0.54 | 0.973 | 1.1 | 1.01 | 0.995 | 0.844 | 0.978 | 1.09 | 1.04 | 1.02 | 0.936 | 1.02 | 1.13 | 1.18 | 1.12 | 0.995 |

Reference: the supplement of paper PMC10307832
